Reference: patent US20240270727A1, “NEW SUBSTITUTED PYRIDINES AS FUNGICIDE” (BASF SE, priority 2021, published 2024)

What was measured:
Leptosphaeria nodorum = test: Comparative Example 2: activity against wheat leaf spots caused by Leptosphaeria nodorum (microtiter plate); type: cell-based; settings: 7 days after inoculation
Septoria tritici = test: Comparative Example 1: activity against leaf blotch on wheat caused by Septoria tritici (microtiter plate); type: cell-based; settings: 7 days after inoculation
Botrytis cinerea = test: Example 1: activity against the grey mold Botrytis cinerea in the microtiterplate test; type: cell-based; settings: 31 ppm, 7 days after inoculation, relative to active compound-free control (100%)
Fusarium culmorum = test: Example 2: activity against Fusarium culmorum in the microtiterplate test; settings: 31 ppm, 7 days after inoculation, relative to active compound-free control (100%)
Protocol: The stock solutions were mixed according to the ratio, pipetted onto a micro titer plate (MTP) and diluted with water to the stated concentrations. A spore suspension of Fusarium culmorum in an aqueous biomalt or yeast-bactopeptone-glycerine or DOB solution was then added. The plates were placed in a water vapor-saturated chamber at a temperature of 18° C. Using an absorption photometer, the MTPs were measured at 405 nm 7 days after the inoculation.

Ustilago maydis = test: Example 12: activity against Ustilago maydis in the microtiterplate test; settings: 31 ppm, DOB media pH 7
Protocol: The stock solutions were mixed according to the ratio, pipetted onto a micro titer plate (MTP) and diluted with water to the stated concentrations. A spore suspension of the Ustilago maydis isolates in a DOB media (ph 7) was then added.

| SMILES | Growth (%) at 8 pm LEPTNO (Leptosphaeria nodorum) [%] | Growth (%) at 125 pm SEPTTR (Septoria tritici) [%] | growth of the pathogen (Botrytis cinerea) [%] | growth of the pathogen (Fusarium culmorum) [%] | growth of the pathogen (Ustilago maydis) [%] |
| --- | --- | --- | --- | --- | --- |
| Cc1cc(C2=NCC(C)(C)Oc3ccccc32)cnc1C [Ex-2] | 4 | 51 | 0 | 1 |  |
| Cc1cc(C2=NCCOc3ccccc32)cnc1C [D1, reference compound] | 45 | 98 |  |  |  |
| COCC1(C)Oc2ccccc2C(c2cnc(C(F)F)c(C)c2)=NC1(C)C (stereo not drawn) [Ex-10] |  |  | 0 |  |  |
| Cc1cc(C2=NCC(C)(C)Oc3ccccc32)cnc1C(F)F [Ex-8] |  |  | 0 |  |  |
| COCC1(C)Oc2ccccc2C(c2cnc(C)c(C)c2)=NC1(C)C (stereo not drawn) [Ex-9] |  |  | 0 |  |  |
| Cc1cc(C2=NC(C)(C)C(C)(C)Oc3ccccc32)cnc1C(F)F [Ex-4] |  |  | 0 |  |  |
| Cc1cc(C2=NC(C)C(C)(C)Oc3ccccc32)cnc1C (stereo not drawn) [Ex-11] | 6 | 52 | 0 |  |  |
| Cc1cc(C2=NC(C(C)(C)C)C(C)Oc3ccccc32)cnc1C (stereo not drawn) [Ex-24] |  |  |  |  | 0 |
| Cc1cc(C2=NC(C(C)(C)C)COc3ccccc32)cnc1C (stereo not drawn) [Ex-1] |  |  | 0 |  | 0 |
| Cc1cc(C2=NC(=O)C3(CC3)Oc3c(F)cccc32)cnc1C(F)F [Ex-41] |  |  |  |  | 0 |
| Cc1cc(C2=NC(C)(C)C(C)(C)Oc3ccccc32)cnc1C [Ex-3] | 30 | 64 | 0 | 1 |  |
